No end group written: not given here.
Experiments:
[1] = tested on: Histone H3 cleavage by serine proteases; assay: PMA induced histone H3 cleavage in neutrophils (immunoblot) with serine protease inhibition; type: cell-based, human; conditions: preincubation 30 min
Method: (§1) Lysates were resolved by SDS-PAGE and immunoblotted with N- and C-terminal antibodies to H3. GAPDH was used as a loading control. […] At 150 min the cells were fixed and stained for neutrophil elastase (NE), chromatin (using a H2A-H2B-DNA antibody PL2.3) and DNA using DAPI (4′,6-diamidino-2-phenylindole). NS: non-stimulated. Images were taken at 63× and the scale bar is 20 μm.
For all experiments, unless indicated, neutrophils were cultured RPMI (GIBCO 32404014) supplemented with 10 mM HEPES and 0.1% (w/v) HSA, which had been preequilibrated in CO2 conditions for 1 h. Cells were routinely cultured at 37° C., 5% CO2 unless indicated. For all experiments, stimuli were added to cell reactions as 10× working stock solutions freshly diluted in RPMI. For inhibition experiments, a 10× inhibitor stock and appropriate vehicle controls, were added to the cells and preincubated for the times stated in the figure legends.
To analyse proteins, lysates were prepared from stimulated or resting neutrophils. Cells were seeded in culture medium in 1.5 ml microcentrifuge tubes at 1×10^7 cells/ml with 5×10^6 cells per time point. After addition of the inhibitor or agonist, cells were gently mixed and incubated at 37° C. with gentle rotation. […]
For routine protein analysis, samples were analysed by 1D SDS-PAGE and immunoblotted. […] Blotting efficacy was assessed by Ponceau S staining. […]

[2] = tested on: NET formation; assay: NET formation by immunofluorescent confocal microscopy with serine protease inhibition; type: cell-based, human; conditions: preincubation, PMA 50 nM, 150 min
Method: as §1
For immunofluorescent imaging of purified cells, neutrophils/PBMCs were seeded in 24 well dishes containing glass coverslips, with 1×10^5 cells per well and incubated at 37° C. for 1 h allowing to adhere to the coverslip. At this stage, inhibitors and priming factors were included as indicated. Reactions were stopped by the addition of paraformaldehyde (2% [w/v]) for 20 min at RT or 4° C. overnight. After fixation, cells were washed and stained as previously described (Brinkmann et al 2012). Briefly, all steps were performed by floating inverted coverslips on drops of buffer on laboratory parafilm. Cells were permeabilised with PBS, pH 7.5, 0.5% (v/v) Triton X-100 for 3 min. For screening and quantification experiments, this permeabilization step was extended to 10 min. […]

[3] = tested on: 3D9 binding to NETs; assay: Peptide competition assay; parameters: species or system human; conditions: 3D9 preincubated overnight with peptide; PMA 3 h neutrophils
Method: NS: non-stimulated. Images were taken on an upright fluorescent microscope at 20×. Scale bars-50 μm (full field) and 10 μm (inset). • (B) Immunoblots of lysates prepared from neutrophils stimulated with PMA (50 nM) for the times indicated in the figure. […] Samples were serially diluted and immobilized on a high affinity ELISA plate according to DNA content (for NETs, chromatin and DNA) or protein content (for recombinant histone H3) as determined by PicoGreen and bicinchoninic acid assays respectively. Starting concentration was 1 μg/ml DNA or protein. […] Data is presented for dilution 200 ng/ml. REIRR indicates unconjugated branched immunising peptide control formed by SEQ ID NO 11 and SEQ ID NO 26. This peptide was coated at 20 ng/ml. […] (F, G) Neutrophils were seeded in 10 ml petri dishes and stimulated for 3 h with PMA. Before total cell lysis and immunoprecipitation, NETs were digested with benzonase to liberate histones and octamers for antibody binding. […] (F) Coomassie stained gel of proteins immunoprecipitated by 3D9 or isotype control and the corresponding silver stained gel. The predicted cleaved H3 and intact H3 bands are indicated. […]
Neutrophils were seeded on coverslips in a 24 well dish (1×10^5 cells/well) and stimulated with PMA for 3 h and fixed with 2% PFA. […] Peptide competition was assessed visually by fluorescent microscopy.

Row | Molecule | effect on H3 cleavage upon PMA stimulation [1] | effect on NET formation [2] | competition of 3D9 staining of NETs [3]
1 | NCCc1ccc(S(=O)(=O)F)cc1 [AEBSF, 4-[2-aminoethyl] benzensulfonylfluoride] | inhibited H3 cleavage | inhibited NET formation and nuclear decondensation | 
2 | branched immunising peptide: branched peptide formed by REIRR (SEQ ID NO 11) and REIRRKC-NH2 (SEQ ID NO 12) (also: branched: C-terminus of chain 1 amide-linked to Lys6 side chain of chain 2, chain 2 conjugated to KLH via Cys thiol, lactam at chain B 6 to a chain's C-terminus; listed as Homo sapiens) |  |  | could block 3D9 binding to NETs

From patent US20240124564A1, “ANTI-CLEAVED HISTONE H3 MONOCLONAL ANTIBODY THAT SPECIFICALLY RECOGNIZES NEUTROPHIL EXTRACELLULAR TRAPS” (Max-Planck-Gesellschaft zur Förderung der Wissenschaften …, priority 2021, published 2024)
